The assay deals with T1, aPIIQGAP1 (C-terminal aPI binding domain of IQGAP1) (Homo sapiens, UniProt P46940).
T1 sequence (P46940 1551-1657): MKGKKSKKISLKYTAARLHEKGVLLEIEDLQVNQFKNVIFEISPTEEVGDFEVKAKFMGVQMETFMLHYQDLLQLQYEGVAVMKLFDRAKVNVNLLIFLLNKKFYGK
The experiment in a line: TR-FRET competition. As to conditions: displacement of biotinylated PtdInsP3 (2.5 pmol); 50 nM GST fusion.

The text below walks through data of PMC3391087 (The Journal of Biological Chemistry, 2012).

By IC50 is commonly meant the concentration that inhibits the measured activity by half.

With PtdInsP3, the IC50 is ~0.5 µM.
